Data taken from US4745124A, “Orally effective anti-hypertensive agents” (priority 1983, dated 1988).
Read-outs that look alike come from different tables or passages of the source. No end group written: not given here. *: point of attachment. Bz = O=C(c1ccccc1)*

Key:
[1] = molecular target: T1, angiotensin converting enzyme (human urinary ACE) (Homo sapiens, UniProt P12821); assay: ACE activity assay, I50 (Example 216A); format: biochemical; conditions: Benzoyl-GlyHisLeu 1×10^-4 M, Hepes pH 8.0, 37° C, in vitro
T1 construct: ACE purified from human urine; from tissue; host or cells: human urine (ultrafiltration and Sephacryl S-200, first eluting peak; prepared as in Ryan et al., Tissue and Cell 10, 555 (1978))

[2] = test system: pressor effects of angiotensin I; assay: oral effectiveness: blood pressure response to angiotensin I in anesthetized rats; format: in vivo, rat; conditions: oral 20 μmol/kg
Procedure: Rats (210-290 g body weight) were fasted overnight and then anesthetized with intraperitoneal pentobarbital, 50-60 mg/kg. Tracheostomy was performed and the animals were ventilated mechanically. A cannula was inserted into a femoral vein for injection of angiotensin I or II, and a second cannula was inserted into a common carotid artery for direct measurement of arterial blood pressure. Heparin, 1,000 units, was injected via the femoral vein to prevent coagulation. Blood pressure was measured with a pressure transducer connected to a polygraph. The rats were injected with 80 ng of angiotensin I or angiotensin II in 20 μl of 0.9 g % NaCl; an amount of antiotensin I or II sufficient to raise mean arterial blood pressure by 27-40 mm Hg. After the responsiveness of a given rat to angiotensins I and II was established, compound (I), at 2 or 5 mg/kg (drug dissolved in 0.5 ml of H2 O plus 10 μl of 1N NaHCO3), was given via a stomach tube. At timed intervals, the effects of 80 ng of angiotensin I or angiotensin II on mean arterial blood pressure were tested.
Rats were prepared as described in Example 222. Compound (II) [N-benzoyl-L-phenylalanylthiopropanoyl)-L-proline] was given orally, via a stomach tube, at a dose of 12 mg/kg or 20 mg/kg. Compound (II) was dissolved in 0.5 ml of H2 O plus 10 μl of 1N NaHCO3. In all other respects, the experimental preparations were exactly as described in Example 222.
Rats (210-290 g body weight) were fasted overnight and then anesthetized with intraperitoneal pentobarbital, 50-60 mg/kg. Tracheostomy was performed and the animals were ventilated mechanically. A cannula was inserted into a femoral vein for injection of angiotensin I or II, and a second cannula was inserted into a common carotid artery for direct measurement of arterial blood pressure. Heparin, 1,000 units, was injected via the femoral vein to prevent coagulation. Blood pressure was measured with a pressure transducer connected to a polygraph. The rats were injected with 160 ng of angiotensin I or 80 ng of angiotensin II in 20 μl of 0.9 g % NaCl; an amount of angiotensin I or II sufficient to raise mean arterial blood pressure by 27-40 mm Hg. After the responsiveness of a given rat to angiotensins I and II was established, compound (B) at 10 mg (drug dissolved in 0.5 ml of H2 O plus 10 μl of 1N NaHCO3), was given via a stomach tube. At timed intervals, the effects of 160 ng of angiotensin I or 80 ng of angiotensin II on mean arterial blood pressure were tested. Results are shown below:
Rats (210-290 g body weight) were fasted overnight and then anesthetized with intraperitoneal pentobarbital, 50-60 mg/kg. Tracheostomy was performed and the animals were ventilated mechanically. A cannula was inserted into a femoral vein for injection of angiotensin I, and a second cannula was inserted into a common carotid artery for direct measurement of arterial blood pressure. Heparin, 1,000 units, was injected via the femoral vein to prevent coagulation. Blood pressure was measured with a pressure transducer connected to a polygraph. The rats were injected with 400 ng/kg of angiotensin I in 20 μl of 0.9 g % NaCl; an amount of angiotensin I sufficient to raise mean arterial blood pressure by 39 mm Hg. After the responsiveness of a given rat to angiotensin I was established, the named compound at 17 μmol/kg (drug dissolved in 0.15 ml of H2 O plus 10 μl of 1N NaHCO3), was given via a stomach tube. At timed intervals, the effects of 400 ng/kg of angiotensin I on mean arterial blood pressure were tested. Results are shown below:
Rats (190-290 g body weight) were fasted overnight and then anesthetized with intraperitoneal pentobarbital, 50-60 mg/kg. Tracheostomy was performed and the animals were ventilated mechanically. A cannula was inserted into a femoral vein for injection of angtiotensin I, and a second cannula was inserted into a common carotid artery for direct measurement of arterial blood pressure. […]

[3] = test system: pressor effects of angiotensin I; assay: intravenous effectiveness: blood pressure response to angiotensin I in anesthetized rats; format: in vivo, rat; conditions: for t1/2: recovery of one half of lost responsiveness to angiotensin I 400 ng/kg; for Blood Pressure Response to 400 ng/kg Angiotensin I: i.v. 2 μmol/kg, Ex. 232
Procedure: (§1) Anesthetized rats were prepared as described in Example 228. After the responsiveness of a given rat to angiotensin I was established, the named compound at 2 μmol/kg, in a volume of 15 μl of 0.01N sodium bicarbonate, was injected via a femoral vein. At timed intervals, the effects of angiotensin I, 400 ng/kg, on mean arterial blood pressure were tested. Results are shown below:
as §1, with “231.” for “228.”, “compound,” for “compound”
Anesthetized rats were prepared as described in Example 239. The animals were administered the named compound via a femoral vein in 15 μl of 0.01N sodium bicarbonate, after the control response to 400 ng/kg of angiotensin I was measured. […] The time required for recovery of one half of the lost responsiveness to angiotensin I, following injection of the named compound, was designated t1/2. […] Results are shown for two dose levels:
Anesthetized rats were prepared as described in Example 242. The named compound was administered intravenously via a femoral vein, at the stated dose, in 15 μl of 0.01N sodium bicarbonate. The response to intravenous administration was a rapid decrease in responsiveness to Angtiotensin I, 400 ng/kg, followed by a gradual recovery to the pretreatment level of responsiveness. The time required for recovery of one half the lost responsiveness to angiotensin I, following injection of the named compound, is designated t1/2. […] Results are shown for the three dose levels:
The intravenous effectiveness of the named compound was examined by following the procedure described in Example 244 except that 1 μmole/kg of the drug was given intravenously. The results are shown below:
The intravenous effectiveness of the named compound was examined by following the procedure described in Example 246 except that 1 μmole/Kg of the drug was given intravenously.

[4] = human urinary ACE, read-out: I50

T1 sequence (P12821 30-1232 limits assumed): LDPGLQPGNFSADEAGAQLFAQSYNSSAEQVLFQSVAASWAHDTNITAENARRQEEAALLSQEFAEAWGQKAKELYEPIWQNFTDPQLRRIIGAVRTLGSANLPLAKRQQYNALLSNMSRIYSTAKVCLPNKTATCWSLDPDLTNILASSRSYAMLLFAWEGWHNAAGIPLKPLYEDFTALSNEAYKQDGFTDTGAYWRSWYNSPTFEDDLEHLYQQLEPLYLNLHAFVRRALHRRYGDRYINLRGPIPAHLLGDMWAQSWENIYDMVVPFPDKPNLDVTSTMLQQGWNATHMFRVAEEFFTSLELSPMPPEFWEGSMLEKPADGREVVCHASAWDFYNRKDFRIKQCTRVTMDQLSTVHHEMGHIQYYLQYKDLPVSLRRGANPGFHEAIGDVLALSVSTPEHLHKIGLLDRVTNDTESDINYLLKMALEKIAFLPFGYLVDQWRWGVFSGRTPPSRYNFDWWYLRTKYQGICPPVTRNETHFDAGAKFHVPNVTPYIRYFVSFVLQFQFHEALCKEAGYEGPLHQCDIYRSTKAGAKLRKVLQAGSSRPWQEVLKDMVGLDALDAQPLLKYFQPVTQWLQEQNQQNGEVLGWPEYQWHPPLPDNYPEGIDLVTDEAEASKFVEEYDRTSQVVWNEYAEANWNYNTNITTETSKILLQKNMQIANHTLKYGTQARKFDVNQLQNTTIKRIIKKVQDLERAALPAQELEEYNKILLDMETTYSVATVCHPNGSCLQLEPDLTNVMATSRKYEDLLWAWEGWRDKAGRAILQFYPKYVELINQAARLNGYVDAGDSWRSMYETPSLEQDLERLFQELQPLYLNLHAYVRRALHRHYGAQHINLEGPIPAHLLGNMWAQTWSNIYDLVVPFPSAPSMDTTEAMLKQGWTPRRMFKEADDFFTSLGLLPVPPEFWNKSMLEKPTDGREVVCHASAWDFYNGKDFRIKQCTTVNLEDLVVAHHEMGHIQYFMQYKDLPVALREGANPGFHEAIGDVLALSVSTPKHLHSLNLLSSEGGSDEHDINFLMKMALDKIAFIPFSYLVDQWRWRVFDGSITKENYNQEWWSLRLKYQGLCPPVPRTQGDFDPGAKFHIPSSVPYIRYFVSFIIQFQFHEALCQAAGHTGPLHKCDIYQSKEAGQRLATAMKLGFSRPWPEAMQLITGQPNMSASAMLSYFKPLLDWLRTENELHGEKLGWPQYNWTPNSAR

How did the IC50 [1, 4] turn out when `O=C(NC(Cc1ccccc1)C(=O)SCCC(=O)N1CCC[C@H]1C(=O)O)c1ccccc1` (stereo partly drawn) [(III), 3-benzoylphenylalanylthio-propanoyl-L-proline] was run?
Its IC50 is 0.7 µM.

For `C[C@H](CSC(=O)[C@H](Cc1ccccc1)NC(=O)c1ccccc1)C(=O)N1CCC[C@H]1C(=O)O` [Example 196, N-[3-(benzoyl-L-phenylalanylthio)-2-D-methyl-propanoyl]-L-proline], which IC50 [1, 4] is on record?
The IC50 was 0.016 µM.

With `C[C@H](CSC(=O)[C@@H](Cc1ccccc1)NC(=O)c1ccccc1)C(=O)N1CCC[C@H]1C(=O)O` [Example 197, N-[3-(benzoyl-D-phenylalanylthio)-2-D-methyl-propanoyl]-L-proline] as the compound, how does the IC50 [1, 4] read?
Its IC50 is 0.009 µM.

How did the IC50 ([1]; I50, human urinary ACE) turn out when `N[C@@H](CS)C(=O)O` [L-cysteine] was run?
The IC50 was 200 µM.

Which IC50 [1, 4] does the source give for `O=C(O)[C@@H]1CCCN1` [L-proline] here?
Its IC50 is 1000 µM.

Which results are given for `C[C@H](CSC(=O)CNC(=O)c1ccccc1)C(=O)N1CCC[C@H]1C(=O)O` [N-alpha-[3-(N-alpha-benzoylglycylthio)-2-D-methylpropanoyl]-L-proline]?
Blood Pressure Response to 400 ng/kg of Angiotensin I ([2]; 1 min, Ex. 239): 95 % of Control; Blood Pressure Response to 400 ng/kg of Angiotensin I ([2]; 6 min, Ex. 239): 95 % of Control; Blood Pressure Response to 400 ng/kg of Angiotensin I ([2]; 11 min, Ex. 239): 95 % of Control; Blood Pressure Response to 400 ng/kg of Angiotensin I ([2]; 22 min, Ex. 239): 92 % of Control; Blood Pressure Response to 400 ng/kg of Angiotensin I ([2]; 28 min, Ex. 239): 68 % of Control; Blood Pressure Response to 400 ng/kg of Angiotensin I ([2]; 33 min, Ex. 239): 61 % of Control; Blood Pressure Response to 400 ng/kg of Angiotensin I ([2]; 39 min, Ex. 239): 58 % of Control; Blood Pressure Response to 400 ng/kg of Angiotensin I ([2]; 45 min, Ex. 239): 47 % of Control; Blood Pressure Response to 400 ng/kg of Angiotensin I ([2]; 60 min, Ex. 239): 47 % of Control; Blood Pressure Response to 400 ng/kg of Angiotensin I ([2]; 67 min, Ex. 239): 45 % of Control; Blood Pressure Response to 400 ng/kg of Angiotensin I ([2]; 74 min, Ex. 239): 47 % of Control; Blood Pressure Response to 400 ng/kg of Angiotensin I ([2]; 82 min, Ex. 239): 47 % of Control; Blood Pressure Response to 400 ng/kg of Angiotensin I ([2]; 92 min, Ex. 239): 47 % of Control; Blood Pressure Response to 400 ng/kg of Angiotensin I ([2]; 137 min, Ex. 239): 55 % of Control; Blood Pressure Response to 400 ng/kg of Angiotensin I ([2]; 142 min, Ex. 239): 55 % of Control; Blood Pressure Response to 400 ng/kg of Angiotensin I ([2]; 152 min, Ex. 239): 47 % of Control; Blood Pressure Response to 400 ng/kg of Angiotensin I ([2]; 185 min, Ex. 239): 63 % of Control; Blood Pressure Response to 400 ng/kg of Angiotensin I ([2]; 207 min, Ex. 239): 79 % of Control; Blood Pressure Response to 400 ng/kg of Angiotensin I ([2]; 230 min, Ex. 239): 74 % of Control; t1/2 ([3]; i.v. 0.23 μmol/kg): 26 min; t1/2 ([3]; i.v. 0.7 μmol/kg): 36 min

With `C[C@H](CSC(=O)[C@H](Cc1ccccc1)NC(=O)[C@H](CCCCNC(=O)OC(C)(C)C)NC(=O)C1CCCC1)C(=O)N1CCC[C@H]1C(=O)O` [N-alpha-[3-(N-alpha-cyclopentylcarbonyl-N-epsilon-tert-butyloxycarbonyl-L-lysyl-L-phenylalanylthio)-2-D-methylpropanoyl]-L-proline] as the compound, how does the IC50 [1, 4] read?
Its IC50 is 0.025 µM.

What does the source list for `C[C@H](CSC(=O)[C@H](Cc1ccccc1)NC(=O)OC(C)(C)C)C(=O)N1CCC[C@H]1C(=O)O` [N-alpha-[3-(N-alpha-tert-butyloxycarbonyl-L-phenylalanylthio)-2-D-methylpropanoyl]-L-proline]?
Blood Pressure Response to 400 ng/kg of Angiotensin I ([2]; 3 min, Ex. 233): 100 % of Control; Blood Pressure Response to 400 ng/kg of Angiotensin I ([2]; 11 min, Ex. 233): 43 % of Control; Blood Pressure Response to 400 ng/kg of Angiotensin I ([2]; 22 min, Ex. 233): 27 % of Control; Blood Pressure Response to 400 ng/kg of Angiotensin I ([2]; 29 min, Ex. 233): 24 % of Control; Blood Pressure Response to 400 ng/kg of Angiotensin I ([2]; 34 min, Ex. 233): 22 % of Control; Blood Pressure Response to 400 ng/kg of Angiotensin I ([2]; 51 min, Ex. 233): 19 % of Control; Blood Pressure Response to 400 ng/kg Angiotensin I ([3]; 0.5 min): 0 % of Control; Blood Pressure Response to 400 ng/kg Angiotensin I ([3]; 3 min): 19 % of Control; Blood Pressure Response to 400 ng/kg Angiotensin I ([3]; 9 min): 19 % of Control; Blood Pressure Response to 400 ng/kg Angiotensin I ([3]; 13 min): 22 % of Control; Blood Pressure Response to 400 ng/kg Angiotensin I ([3]; 18 min): 31 % of Control; Blood Pressure Response to 400 ng/kg Angiotensin I ([3]; 22 min): 31 % of Control; Blood Pressure Response to 400 ng/kg Angiotensin I ([3]; 34 min): 50 % of Control; Blood Pressure Response to 400 ng/kg Angiotensin I ([3]; 47 min): 63 % of Control; Blood Pressure Response to 400 ng/kg Angiotensin I ([3]; 65 min): 78 % of Control; Blood Pressure Response to 400 ng/kg Angiotensin I ([3]; 103 min): 75 % of Control; Blood Pressure Response to 400 ng/kg Angiotensin I ([3]; 113 min): 94 % of Control

With `O=C(N[C@@H](Cc1ccccc1)C(=O)O)c1ccccc1` [benzoyl-Phe] as the compound, how does the IC50 [1, 4] read?
Its IC50 is 400 µM.

For `N[C@@H](CCC(=O)N[C@@H](CS)C(=O)NCC(=O)O)C(=O)O` [γ Glu--Cys--Gly (glutathione), γ Glu--Cys--Gly], which IC50 [1, 4] is on record?
The IC50 was 40 µM.

For < Glu--Cys--Pro, which IC50 [1, 4] is on record?
Its IC50 is 4 µM.

For Bz-Gly-Cys-Pro, which IC50 [1, 4] is on record?
The IC50 was 0.5 µM.

With Bz-Phe-Ala-Pro as the compound, how does the IC50 [1, 4] read?
The IC50 was 0.1 µM.

Bz-Phe-Cys-Pro was tested. Which IC50 [1, 4] did it give?
Its IC50 is 0.6 µM.

For Cys--Pro, which IC50 [1, 4] is on record?
Its IC50 is 11 µM.

How did the IC50 [1, 4] turn out when Phe--Ala--Pro was run?
The IC50 was 0.2 µM.

With acetyl-Cys--Pro as the compound, how does the IC50 [1, 4] read?
The IC50 was 5 µM.

How did the IC50 [1, 4] turn out when γ Glu--Cys--Pro was run?
The IC50 was 11 µM.
